According to article PMC6323127 (Saudi Pharmaceutical Journal : SPJ, 2018):
In brackets after ≈: the same amount, converted by molar mass.

What was measured:
[1] = tested on: CYP1A1/2; settings: in vitro; ref Ayrton et al., 1987; cited from earlier work
[2] = biological target: T1, CYP1A2 (Homo sapiens, UniProt P05177); experiment: biochemical
T1 sequence (P05177 1-516): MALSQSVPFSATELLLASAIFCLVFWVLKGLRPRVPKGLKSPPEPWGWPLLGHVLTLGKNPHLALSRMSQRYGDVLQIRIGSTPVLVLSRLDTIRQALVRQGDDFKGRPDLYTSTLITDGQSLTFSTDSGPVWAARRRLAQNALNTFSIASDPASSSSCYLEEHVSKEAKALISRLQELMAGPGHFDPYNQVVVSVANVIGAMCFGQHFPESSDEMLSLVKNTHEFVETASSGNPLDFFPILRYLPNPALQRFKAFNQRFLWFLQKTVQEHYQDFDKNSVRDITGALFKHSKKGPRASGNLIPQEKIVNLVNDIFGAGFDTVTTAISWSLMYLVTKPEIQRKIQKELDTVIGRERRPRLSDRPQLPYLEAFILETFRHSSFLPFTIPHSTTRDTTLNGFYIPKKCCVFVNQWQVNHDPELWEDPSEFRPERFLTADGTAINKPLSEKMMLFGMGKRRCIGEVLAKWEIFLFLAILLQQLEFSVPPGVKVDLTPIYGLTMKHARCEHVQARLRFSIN

[3] = biological target: T2, CYP3A4 (Homo sapiens, UniProt P08684); settings: for relative potency (AEM IC50)/(other anthraquinone IC50), CYP3A4-mediated erythromycin demethylation: AEM as reference chemical; for inhibitor strength toward CYP3A4 activity (in words): human liver microsomes
[4] = biological target: T1, CYP1A2; settings: for relative potency (AEM IC50)/(other anthraquinone IC50), CYP1A2-mediated caffeine demethylation: AEM as reference chemical; for inhibitor strength toward CYP1A2 activity (in words): human liver microsomes
[5] = biological target: T2, CYP3A4; experiment: biochemical
[6] = biological target: T1, CYP1A2; experiment: in vitro; settings: microsomes, pH 7.4

T2 sequence (P08684 whole entry): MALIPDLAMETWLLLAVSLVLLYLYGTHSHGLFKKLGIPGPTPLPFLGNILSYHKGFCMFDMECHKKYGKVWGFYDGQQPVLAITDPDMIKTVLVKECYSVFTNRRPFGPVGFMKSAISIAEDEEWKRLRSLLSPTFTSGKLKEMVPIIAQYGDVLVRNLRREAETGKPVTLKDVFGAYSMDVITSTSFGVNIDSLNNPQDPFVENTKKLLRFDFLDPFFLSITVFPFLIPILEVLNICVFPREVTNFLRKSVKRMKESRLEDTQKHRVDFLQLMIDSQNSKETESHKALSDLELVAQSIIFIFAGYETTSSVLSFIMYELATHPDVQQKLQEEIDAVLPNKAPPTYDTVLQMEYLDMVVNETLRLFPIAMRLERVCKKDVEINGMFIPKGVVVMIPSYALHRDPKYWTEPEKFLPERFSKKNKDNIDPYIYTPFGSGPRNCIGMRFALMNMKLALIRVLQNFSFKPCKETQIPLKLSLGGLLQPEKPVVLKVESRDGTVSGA

O=C1c2ccc(O)cc2C(=O)c2ccc(O)cc21 [2,6-dihydroxyanthraquinone]
inhibitor strength toward rat liver microsomal CYP1A1/2 activity (in words) [1]: potent inhibitor

O=C1c2cccc(O)c2C(=O)c2c(O)cc(CO)cc21 [Aloe-emodin]
IC50 [2]: 1550 nM | relative potency (AEM IC50)/(other anthraquinone IC50), CYP3A4-mediated erythromycin demethylation [3]: 1.00 unitless | inhibitor strength toward CYP3A4 activity (in words) [3]: moderate inhibitors | relative potency (AEM IC50)/(other anthraquinone IC50), CYP1A2-mediated caffeine demethylation [4]: 1.00 unitless | slope of CYP1A2 inhibition-log concentration (or dilution volume) curve ([4]; Fig. 5): 1.74 | inhibitor strength toward CYP1A2 activity (in words) [4]: potent inhibitors | IC50 [5]: 8.29 µM

Cc1cc(O)c2c(c1)C(=O)c1cccc(O)c1C2=O [Chrysophanol]
IC50 [2]: 1730 nM | inhibitor strength toward CYP1A2 activity (in words) [4]: potent inhibitors

Cc1cc(O)c2c(c1)C(=O)c1cc(O)cc(O)c1C2=O [Emodin]
IC50 [2]: 67000 nM | relative potency (AEM IC50)/(other anthraquinone IC50), CYP3A4-mediated erythromycin demethylation [3]: 0.55 unitless | inhibitor strength toward CYP3A4 activity (in words) [3]: moderate inhibitors | relative potency (AEM IC50)/(other anthraquinone IC50), CYP1A2-mediated caffeine demethylation [4]: 0.02 unitless | inhibitor strength toward CYP1A2 activity (in words) [4]: weak CYP1A2 inhibitor | IC50 [5]: 15.2 µM

COc1cc(O)c2c(c1)C(=O)c1cc(C)cc(O)c1C2=O [Physcion]
relative potency (AEM IC50)/(other anthraquinone IC50), CYP3A4-mediated erythromycin demethylation [3]: < 0.04 unitless | relative potency (AEM IC50)/(other anthraquinone IC50), CYP1A2-mediated caffeine demethylation [4]: 0.98 unitless | inhibitor strength toward CYP1A2 activity (in words) [4]: potent inhibitors | IC50 [5]: > 220 µM | IC50 [6]: 0.43 µg/mL (≈ 1.51 µM)

O=C(O)c1cc(O)c2c(c1)C(=O)c1cccc(O)c1C2=O [Rhein]
IC50 [2]: 2180 nM | relative potency (AEM IC50)/(other anthraquinone IC50), CYP3A4-mediated erythromycin demethylation [3]: 0.08 unitless | inhibitor strength toward CYP3A4 activity (in words) [3]: weak inhibitors | relative potency (AEM IC50)/(other anthraquinone IC50), CYP1A2-mediated caffeine demethylation [4]: 0.68 unitless | inhibitor strength toward CYP1A2 activity (in words) [4]: potent inhibitors | IC50 [5]: 97.6 µM

O=C(O)c1cc(O)c2c(c1)[C@H]([C@H]1c3cc(C(=O)O)cc(O)c3C(=O)c3c(O[C@@H]4O[C@H](CO)[C@@H](O)[C@H](O)[C@H]4O)cccc31)c1cccc(O[C@@H]3O[C@H](CO)[C@@H](O)[C@H](O)[C@H]3O)c1C2=O [Sennoside A]
IC50 [2]: > 155000 nM | inhibitor strength toward CYP3A4 activity (in words) [3]: weak inhibitor | inhibitor strength toward CYP1A2 activity (in words) [4]: weak inhibitor

O=C(O)c1cc(O)c2c(c1)[C@@H]([C@H]1c3cc(C(=O)O)cc(O)c3C(=O)c3c(O[C@@H]4O[C@H](CO)[C@@H](O)[C@H](O)[C@H]4O)cccc31)c1cccc(O[C@@H]3O[C@H](CO)[C@@H](O)[C@H](O)[C@H]3O)c1C2=O [Sennoside B]
IC50 [2]: 33100 nM | inhibitor strength toward CYP3A4 activity (in words) [3]: moderate inhibitor | inhibitor strength toward CYP1A2 activity (in words) [4]: moderate inhibitor
